Biological target: T1, PDK-1 (Homo sapiens, UniProt O15530)
T1 sequence (O15530 1-556): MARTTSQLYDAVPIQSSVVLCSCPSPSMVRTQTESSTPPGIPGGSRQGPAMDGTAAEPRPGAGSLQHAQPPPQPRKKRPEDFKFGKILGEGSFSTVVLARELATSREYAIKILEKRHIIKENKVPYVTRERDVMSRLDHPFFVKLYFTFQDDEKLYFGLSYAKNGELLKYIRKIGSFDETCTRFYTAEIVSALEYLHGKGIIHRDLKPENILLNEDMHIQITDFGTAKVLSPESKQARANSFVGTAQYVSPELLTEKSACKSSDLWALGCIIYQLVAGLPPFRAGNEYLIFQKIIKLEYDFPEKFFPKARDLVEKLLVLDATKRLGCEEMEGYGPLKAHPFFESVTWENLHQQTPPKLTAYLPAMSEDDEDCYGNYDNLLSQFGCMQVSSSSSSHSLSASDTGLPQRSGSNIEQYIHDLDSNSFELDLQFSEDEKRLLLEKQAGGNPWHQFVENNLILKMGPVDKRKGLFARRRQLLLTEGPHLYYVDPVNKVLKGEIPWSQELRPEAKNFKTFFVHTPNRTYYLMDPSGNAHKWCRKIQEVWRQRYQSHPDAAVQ
Test: PDK-1 kinase inhibition ELISA assay (phosphorylation of His6-tagged SGK1 S422D by PDK-1)
Format: biochemical
Conditions: PDK-1 ELISA, Table 11; read-out: Average IC50

Row | SMILES | IC50
1 | COCCOc1cc2ncc3c(N)nc(N4CCC[C@@H]4COC)cc3c2cc1OC [Ia-56, 9-methoxy-8-(2-methoxyethoxy)-2-[(2R)-2-(methoxymethyl)pyrrolidin-1-yl]benzo[c]-2,7-naphthyridin-4-amine] | 2360 nM
2 | COc1cc2ncc3c(N)nc(-c4cncc(Nc5cccc(CN)c5)c4)cc3c2cc1OC [Ib-189, 2-(5-{[3-(aminomethyl)phenyl]amino}pyridin-3-yl)-8,9-dimethoxybenzo[c][2,7]naphthyridin-4-amine] | 27 nM
3 | COc1cc2ncc3c(N)nc(-c4cncc(OC[C@@H](N)COc5nccc6ccccc56)c4)cc3c2cc1OC [Ib-147, 2-(5-{[(2R)-2-amino-3-(isoquinolin-1-yloxy)propyl]oxy}pyridin-3-yl)-8,9-dimethoxybenzo[c][2,7]naphthyridin-4-amine] | 10 nM
4 | COc1cc2ncc3c(N)nc(-c4cncc(OC[C@@H](N)COS(C)(=O)=O)c4)cc3c2cc1OC [Ib-7, (2R)-2-Amino-3-{[5-(4-amino-8,9-dimethoxybenzo[c]-2,7-naphthyridin-2-yl)pyridin-3-yl]oxy}propyl methanesulfonate] | 16 nM
5 | COc1cc2ncc3c(N)nc(-c4ccc(Br)c(F)c4)cc3c2cc1OC [Ib-234, 2-(4-bromo-3-fluorophenyl)-8,9-dimethoxybenzo[c][2,7]naphthyridin-4-amine] | 1000 nM
6 | COc1cc2ncc3c(N)nc(-c4cncc(OC[C@@H](N)CN(C)Cc5cccnc5)c4)cc3c2cc1OC [Ib-6, (2S)-3-{[5-(4-amino-8,9-dimethoxybenzo[c]-2,7-naphthyridin-2-yl)pyridin-3-yl]oxy}-N1-methyl-N1-(pyridin-3-ylmethyl)propane-1,2-diamine] | 4 nM
7 | COc1cc2ncc3c(N)nc(-c4ccc5[nH]ncc5c4)cc3c2cc1OC [Ib-249, 2-(1H-indazol-5-yl)-8,9-dimethoxybenzo[c][2,7]naphthyridin-4-amine] | 205 nM
8 | COc1cc2ncc3c(N)nc(-c4cncc(Nc5cccc(CO)c5)c4)cc3c2cc1OC [Ib-195, (3-{[5-(4-amino-8,9-dimethoxybenzo[c][2,7]naphthyridin-2-yl)pyridin-3-yl]amino}phenyl)methanol] | 67 nM
9 | COCCOc1cc2ncc3c(N)nc(N(C)C4CCN(C)C4)cc3c2cc1OC (stereo not shown) [Ia-52, 9-methoxy-8-(2-methoxyethoxy)-N2-methyl-N^2-(1-methylpyrrolidin-3-yl)benzo[c]-2,7-naphthyridine-2,4-diamine] | 3280 nM
10 | COc1cc2ncc3c(N)nc(-c4cncc(OC[C@@H](N)CSc5ccccc5)c4)cc3c2cc1OC [Ib-162, 2-(5-{[(2R)-2-amino-3-(phenylthio)propyl]oxy}pyridin-3-yl)-8,9-dimethoxybenzo[c][2,7]naphthyridin-4-amine] | 4 nM
11 | COc1cc2ncc3c(N)nc(-c4cncc(OC[C@@H](N)COc5nc6ccccc6[nH]5)c4)cc3c2cc1OC [Ib-146, 2-(5-{[(2R)-2-amino-3-(1H-benzimidazol-2-yloxy)propyl]oxy}pyridin-3-yl)-8,9-dimethoxybenzo[c][2,7]naphthyridin-4-amine] | 2 nM
12 | COCCOc1cc2ncc3c(N)nc(OC)cc3c2cc1OC [Ia-58, 2,9-Dimethoxy-8-(2-methoxyethoxy)benzo[c]-2,7-naphthyridin-4-amine] | 1280 nM
13 | COc1cc2ncc3c(N)nc(-c4cncc(OCC(=O)c5ccccc5)c4)cc3c2cc1OC [Ib-267, 2-{[5-(4-amino-8,9-dimethoxybenzo[c][2,7]naphthyridin-2-yl)pyridin-3-yl]oxy}-1-phenylethanone] | 798 nM
14 | COc1cc2ncc3c(N)nc(-c4cncc(Oc5ccncc5N)c4)cc3c2cc1OC [Ib-170, 2-{5-[(3-Aminopyridin-4-yl)oxy]pyridin-3-yl}-8,9-dimethoxybenzo[c][2,7]naphthyridin-4-amine] | 115 nM
15 | COc1cc2ncc3c(N)nc(-c4cncc(OC[C@@H](N)CSc5nccn5C)c4)cc3c2cc1OC [Ib-161, 2-[5-({(2R)-2-amino-3-[(1-methyl-1H-imidazol-2-yl)thio]propyl}oxy)pyridin-3-yl]-8,9-dimethoxybenzo[c][2,7]naphthyridin-4-amine] | 3 nM
16 | CCC(C)NC(=N)c1cncc(-c2cc3c(cnc4cc(OC)c(OC)cc43)c(N)n2)c1 (stereo not shown) [Ib-270, 5-(4-Amino-8,9-dimethoxybenzo[c][2,7]naphthyridin-2-yl)-N-sec-butylnicotin-imidamide] | 606 nM
17 | COc1cc2c(cc1N1CCOCC1)ncc1c(N)nc(-c3cncc(OC[C@@H](N)Cc4ccccc4)c3)cc12 [Ia-39, 2-(5-{[(2S)-2-Amino-3-phenylpropyl]oxy}pyridin-3-yl)-9-methoxy-8-morpholin-4-ylbenzo[c]-2,7-naphthyridin-4-amine] | 59 nM

Row | SMILES | IC50
18 | CCCCN(C[C@H](N)COc1cncc(-c2cc3c(cnc4cc(OC)c(OC)cc43)c(N)n2)c1)S(=O)(=O)c1ccccc1 [Ib-77, N-[(2S)-2-amino-3-{[5-(4-amino-8,9-dimethoxybenzo[c][2,7]naphthyridin-2-yl)pyridin-3-yl]oxy}propyl]-N-butylbenzenesulfonamide] | 21 nM
19 | COc1cc2ncc3c(N)nc(-c4cncc(Nc5ccc(CCO)cc5)c4)cc3c2cc1OC [Ib-198, 2-(4-{[5-(4-amino-8,9-dimethoxybenzo[c][2,7]naphthyridin-2-yl)pyridin-3-yl]amino}phenyl)ethanol] | 91 nM
20 | CCOc1cc2ncc3c(N)nc(-c4ccc(Br)cc4)cc3c2cc1OCC [Ia-47, 2-(4-bromophenyl)-8,9-diethoxybenzo[c]-2,7-naphthyridin-4-amine] | > 20000 nM
21 | COc1cc2ncc3c(N)nc(-c4cncc(Br)c4)cc3c2cc1OC [Ib-15, 2-(5-bromopyridin-3-yl)-8,9-dimethoxybenzo[c]-2,7-naphthyridin-4-amine] | 66 nM
22 | CCCCNC(=N)c1cncc(-c2cc3c(cnc4cc(OC)c(OC)cc43)c(N)n2)c1 [Ib-268, 5-(4-Amino-8,9-dimethoxybenzo[c][2,7]naphthyridin-2-yl)-N-butylnicotinimidamide] | 1000 nM
23 | COc1cc2ncc3c(N)nc(-c4cncc(OC[C@@H](N)CNc5ccccc5)c4)cc3c2cc1OC [Ib-80, (2S)-3-{[5-(4-amino-8,9-dimethoxybenzo[c][2,7]naphthyridin-2-yl)pyridin-3-yl]oxy}-N^1-phenylpropane-1,2-diamine] | 3 nM
24 | COc1cc2ncc3c(N)nc(-c4cncc(Nc5cccc(C(N)=O)c5)c4)cc3c2cc1OC [Ib-188, 3-{[5-(4-amino-8,9-dimethoxybenzo[c][2,7]naphthyridin-2-yl)pyridin-3-yl]amino}benzamide] | 39 nM
25 | COc1cc2ncc3c(N)nc(-c4cncc(OC[C@@H](N)CN5CCC[C@@H]5c5nccs5)c4)cc3c2cc1OC [Ib-102, 2-[5-({(2S)-2-amino-3-[(2R)-2-(1,3-thiazol-2-yl)pyrrolidin-1-yl]propyl}oxy)pyridin-3-yl]-8,9-dimethoxybenzo[c][2,7]naphthyridin-4-amine] | 38 nM
26 | COc1cc2ncc3c(N)nc(-c4cc(F)cc(CCCN)c4)cc3c2cc1OC [Ib-250, 2-(3-(3-Aminopropyl)-5-fluorophenyl)-8,9-dimethoxybenzo[c][2,7]naphthyridin-4-amine] | 34 nM
27 | COc1cc2ncc3c(N)nc(N(C)Cc4cccnc4)cc3c2cc1OC [Ib-64, 8,9-dimethoxy-N^2-methyl-N^2-(pyridin-3-ylmethyl)benzo[c]-2,7-naphthyridine-2,4-diamine] | 3580 nM
28 | COc1cc2ncc3c(N)nc(-c4ccc(F)c(F)c4)cc3c2cc1OC [Ib-240, 2-(3,4-difluorophenyl)-8,9-dimethoxybenzo[c][2,7]naphthyridin-4-amine] | 998 nM
29 | COCCOc1cc2ncc3c(N)nc(N4CCC(O)CC4)cc3c2cc1OC [Ia-53, 1-[4-amino-9-methoxy-8-(2-methoxyethoxy)benzo[c]-2,7-naphthyridin-2-yl]piperidin-4-ol] | 2060 nM
30 | COc1cc2ncc3c(N)nc(-c4cncc(OC[C@@H](N)COc5ccncc5)c4)cc3c2cc1OC [Ib-151, 2-(5-{[(2S)-2-amino-3-(pyridin-4-yloxy)propyl]oxy}pyridin-3-yl)-8,9-dimethoxybenzo[c][2,7]naphthyridin-4-amine] | 10 nM
31 | COc1cc2ncc3c(N)nc(-c4cncc(OC[C@@H](N)COc5ncc(Cl)cc5Cl)c4)cc3c2cc1OC [Ib-153, 2-[5-({(2R)-2-amino-3-[(3,5-dichloropyridin-2-yl)oxy]propyl}oxy)pyridin-3-yl]-8,9-dimethoxybenzo[c][2,7]naphthyridin-4-amine] | 4 nM
32 | CCNCCOc1cncc(-c2cc3c(cnc4cc(OC)c(OC)cc43)c(N)n2)c1 [Ib-73, 2-(5-(2-(ethylamino)ethoxy)pyridin-3-yl)-8,9-dimethoxybenzo[c][2,7]naphthyridin-4-amine] | 46.5 nM
33 | COc1cc2ncc3c(N)nc(-c4cncc(Nc5ccc(C(=O)Nc6ccccc6)cc5)c4)cc3c2cc1OC [Ib-193, 4-{[5-(4-amino-8,9-dimethoxybenzo[c][2,7]naphthyridin-2-yl)pyridin-3-yl]amino}-N-phenylbenzamide] | 506 nM
34 | CCN(CC)CCNC(=O)c1ccc(Nc2cncc(-c3cc4c(cnc5cc(OC)c(OC)cc54)c(N)n3)c2)cc1 [Ib-191, 4-{[5-(4-amino-8,9-dimethoxybenzo[c][2,7]naphthyridin-2-yl)pyridin-3-yl]amino}-N-[2-(diethylamino)ethyl]benzamide] | 81 nM

From patent US20080293712A1, “Benzo[C][2,7]Naphtyridine Derivatives, Methods of Making Thereof and Methods of Use Thereof” (WYETH, priority 2007, published 2008)
